System: IFNγ-Induced NO Production
Test: Nitric Oxide Suppression Assay (Suppression of IFNγ-Induced NO Production)
Assay type: cell-based
Details: RAW264.7; RAW 264.7 mouse macrophage cells; 2 hour pre-treatment with compound (3 μM to 0.3 nM, 10 point curve); 20 ng/mL interferon gamma, ~18 hour; Griess detection; n=2-3 in duplicates
Procedure: RAW 264.7, a mouse macrophage cell line, was obtained from American Type Culture Collection (Manassas Va.) and maintained in the log phase of growth in Dulbecco's Modified Eagle's Medium (DMEM), 10% heat inactivated fetal calf serum and 100 units/mL antibiotic-antimycotic (AA). Cells were cultured and maintained in a humidified incubator at 37° C. under 5% CO2 and 95% air. Cells were sub-cultured every 3 days by scraping and were not used beyond passage 20. All cell culture supplies were obtained from Life Technologies (Grand Island, N.Y.).
RAW 264.7 cells were plated 1 day in advance of experiment at a concentration of 80,000 cells/well onto CellBIND® 96 well plates (Corning, N.Y.) in a total volume of 100 μL. The next day, pre-treat cells with compounds (from 3 μM to 0.3 nM serially diluted in a 10 point curve) from a 10× stock by adding 10 μL per well in complete DMEM media containing 10% fetal calf serum. The plates were centrifuged for 3 minutes at 400×g at room temperature followed by 2 hour incubation at 37° C. The cells were then incubated overnight at 37° C. with 10 μL of the insult, interferon gamma (R&D Systems, Minneapolis, Minn.), from a 10× stock for a final concentration of 20 ng/mL. The plates were centrifuged for 3 minutes at 400×g at room temperature followed by ˜18 hour incubation at 37° C. The following day, transfer 50 μL cell culture supernatant from each well into a clear bottom 96 well plate and follow the instructions from Promega's Griess Detection Kit #G2930 (Madison, Wis.) which involves the addition of 50 μL of the provided sulfanilamide solution for a 5-10 minute incubation at room temperature. Next add 50 μL of the provided N-1-napthylethylenediamine dihydrochloride (NED) solution for a 5-10 minute incubation at room temperature and protected from light. If any air bubbles were introduced into the well, the plates need to be centrifuged for 5 minutes at 400×g at room temperature to avoid interference with absorbance readings. The plates were read for absorbance within 30 minutes with a filter between 520 nm and 550 nm.
For the ability of compounds to suppress the increase in nitric oxide release, the percent maximal intensity of nitric oxide detected in each well was normalized to that induced by the peak value for 20 ng/mL of interferon gamma alone and plotted against the compound concentration to calculate IC50 values and to control for plate-to-plate variability. Concentration-response data were analyzed using GraphPad Prism (San Diego, Calif.); the IC50 values were derived from a single curve fit to the mean data of n=2-3, in duplicates.
All compounds were dissolved in dimethyl sulfoxide at 10 mM stock solutions and tested at a concentration that the dimethyl sulfoxide levels never exceeded 1%.

SMILES | IC50 [nM]
Cc1nc(-c2cncn2C)c2c(n1)[C@@]1(c3ccccc3)C=C(C#N)C(=O)[C@@H](C)[C@@H]1CC2 [Example 17, (6aS,7S,10aR)-2,7-dimethyl-4-(1-methyl-1H-imidazol-5-yl)-8-oxo-10a-phenyl-5,6,6a,7,8,10a-hexahydrobenzo[h]quinazoline-9-carbonitrile] | 3.25
Cc1nc(-c2cnc(C)s2)c2c(n1)[C@@]1(c3ccccc3)C=C(C#N)C(=O)[C@@H](C)[C@@H]1CC2 [Example 18, (6aS,7S,10aR)-2,7-dimethyl-4-(2-methyl-1,3-thiazol-5-yl)-8-oxo-10a-phenyl-5,6,6a,7,8,10a-hexahydrobenzo[h]quinazoline-9-carbonitrile] | 5.17
C[C@@H]1C(=O)C(C#N)=C[C@]2(c3ccccc3)c3nc(N4CCOCC4)ncc3CC[C@@H]12 [Example 19, (6aS,7S,10aR)-7-methyl-2-(morpholin-4-yl)-8-oxo-10a-phenyl-5,6,6a,7,8,10a-hexahydrobenzo[h]quinazoline-9-carbonitrile] | 36.2
Cc1nc(O)c2c(n1)[C@@]1(c3ccccc3)C=C(C#N)C(=O)[C@@H](C)[C@@H]1CC2 [Example 20, (6aS,7S,10aR)-4-hydroxy-2,7-dimethyl-8-oxo-10a-phenyl-5,6,6a,7,8,10a-hexahydrobenzo[h]quinazoline-9-carbonitrile] | 45
Cc1nc(-c2ccccc2)c2c(n1)[C@@]1(c3ccccc3)C=C(C#N)C(=O)[C@@H](C)[C@@H]1CC2 [Example 21, (6aS,7S,10aR)-2,7-dimethyl-8-oxo-4,10a-diphenyl-5,6,6a,7,8,10a-hexahydrobenzo[h]quinazoline-9-carbonitrile] | 9.94
Cc1nc(-c2cncnc2)c2c(n1)[C@@]1(c3ccccc3)C=C(C#N)C(=O)[C@@H](C)[C@@H]1CC2 [Example 22, (6aS,7S,10aR)-2,7-dimethyl-8-oxo-10a-phenyl-4-(pyrimidin-5-yl)-5,6,6a,7,8,10a-hexahydrobenzo[h]quinazoline-9-carbonitrile] | 31.8
Cc1nc(-c2ccoc2)c2c(n1)[C@@]1(c3ccccc3)C=C(C#N)C(=O)[C@@H](C)[C@@H]1CC2 [Example 23, (6aS,7S,10aR)-4-(3-furyl)-2,7-dimethyl-8-oxo-10a-phenyl-5,6,6a,7,8,10a-hexahydrobenzo[h]quinazoline-9-carbonitrile] | 6.98
C[C@@H]1C(=O)C(C#N)=C[C@]2(c3ccccc3)c3n[nH]cc3CC[C@@H]12 [Example 24, (5aS,6S,9aR)-6-methyl-7-oxo-9a-phenyl-4,5,5a,6,7,9a-hexahydro-2H-benzo[g]indazole-8-carbonitrile] | 67.7
COc1nc(-c2ccccc2F)nc2c1CC[C@H]1[C@H](C)C(=O)C(C#N)=C[C@]21c1ccccc1 [Example 25, (6aS,7S,10aR)-2-(2-fluorophenyl)-4-methoxy-7-methyl-8-oxo-10a-phenyl-5,6,6a,7,8,10a-hexahydrobenzo[h]quinazoline-9-carbonitrile] | 37.8
C[C@@H]1C(=O)C(C#N)=C[C@]2(c3ccccc3)c3c(c(-c4cccnc4)nn3C)CC[C@@H]12 [Example 26, (5aS,6S,9aR)-1,6-dimethyl-7-oxo-9a-phenyl-3-(pyridin-3-yl)-4,5,5a,6,7,9a-hexahydro-1H-benzo[g]indazole-8-carbonitrile] | 1.3
Cc1nc(-c2ccncc2)c2c(n1)[C@@]1(c3ccccc3)C=C(C#N)C(=O)[C@@H](C)[C@@H]1CC2 [Example 27, (6aS,7S,10aR)-2,7-dimethyl-8-oxo-10a-phenyl-4-(pyridin-4-yl)-5,6,6a,7,8,10a-hexahydrobenzo[h]quinazoline-9-carbonitrile] | 5.9
CC(=O)n1cc2c(n1)[C@@]1(c3ccccc3)C=C(C#N)C(=O)[C@@H](C)[C@@H]1CC2 [Example 28, (5aS,6S,9aR)-2-acetyl-6-methyl-7-oxo-9a-phenyl-4,5,5a,6,7,9a-hexahydro-2H-benzo[g]indazole-8-carbonitrile] | 39
C[C@@H]1C(=O)C(C#N)=C[C@]2(c3ccccc3)c3nc(-c4ccncc4)ncc3CC[C@@H]12 [Example 29, (6aS,7S,10aR)-7-methyl-8-oxo-10a-phenyl-2-(pyridin-4-yl)-5,6,6a,7,8,10a-hexahydrobenzo[h]quinazoline-9-carbonitrile] | 6.36
CCN(CC)c1ncc2c(n1)[C@@]1(c3ccccc3)C=C(C#N)C(=O)[C@@H](C)[C@@H]1CC2 [Example 30, (6aS,7S,10aR)-2-(diethylamino)-7-methyl-8-oxo-10a-phenyl-5,6,6a,7,8,10a-hexahydrobenzo[h]quinazoline-9-carbonitrile] | 56.8
CC(C)Oc1nc(-c2ccccc2F)nc2c1CC[C@H]1[C@H](C)C(=O)C(C#N)=C[C@]21c1ccccc1 [Example 31, (6aS,7S,10aR)-2-(2-fluorophenyl)-4-isopropoxy-7-methyl-8-oxo-10a-phenyl-5,6,6a,7,8,10a-hexahydrobenzo[h]quinazoline-9-carbonitrile] | 272
COC(=O)n1cc2c(n1)[C@@]1(c3ccccc3)C=C(C#N)C(=O)[C@@H](C)[C@@H]1CC2 [Example 32, methyl (5aS,6S,9aR)-8-cyano-6-methyl-7-oxo-9a-phenyl-4,5,5a,6,7,9a-hexahydro-2H-benzo[g]indazole-2-carboxylate] | 25.9
Cc1nc(-c2cn[nH]c2)c2c(n1)[C@@]1(c3ccccc3)C=C(C#N)C(=O)[C@@H](C)[C@@H]1CC2 [Example 34, (6aS,7S,10aR)-2,7-dimethyl-8-oxo-10a-phenyl-4-(1H-pyrazol-4-yl)-5,6,6a,7,8,10a-hexahydrobenzo[h]quinazoline-9-carbonitrile] | 2.86
Cc1nc(-c2cnn(C)c2)c2c(n1)[C@@]1(c3ccccc3)C=C(C#N)C(=O)[C@@H](C)[C@@H]1CC2 [Example 35, (6aS,7S,10aR)-2,7-dimethyl-4-(1-methyl-1H-pyrazol-4-yl)-8-oxo-10a-phenyl-5,6,6a,7,8,10a-hexahydrobenzo[h]quinazoline-9-carbonitrile] | 4.86
C[C@@H]1C(=O)C(C#N)=C[C@]2(c3ccccc3)c3nn(S(C)(=O)=O)cc3CC[C@@H]12 [Example 36, (5aS,6S,9aR)-6-methyl-2-(methylsulfonyl)-7-oxo-9a-phenyl-4,5,5a,6,7,9a-hexahydro-2H-benzo[g]indazole-8-carbonitrile] | 69.3
C[C@@H]1C(=O)C(C#N)=C[C@]2(c3ccccc3)c3nn(C(=O)Oc4ccccc4)cc3CC[C@@H]12 [Example 37, phenyl (5aS,6S,9aR)-8-cyano-6-methyl-7-oxo-9a-phenyl-4,5,5a,6,7,9a-hexahydro-2H-benzo[g]indazole-2-carboxylate] | 60.5
C[C@@H]1C(=O)C(C#N)=C[C@]2(c3ccccc3)c3nn(C(=O)c4ccccc4)cc3CC[C@@H]12 [Example 38, (5aS,6S,9aR)-2-benzoyl-6-methyl-7-oxo-9a-phenyl-4,5,5a,6,7,9a-hexahydro-2H-benzo[g]indazole-8-carbonitrile] | 75.2
C[C@@H]1C(=O)C(C#N)=C[C@]2(c3ccccc3)c3nn(C(=O)CNC(=O)OC(C)(C)C)cc3CC[C@@H]12 [Example 39, tert-butyl {2-[(5aS,6S,9aR)-8-cyano-6-methyl-7-oxo-9a-phenyl-4,5,5a,6,7,9a-hexahydro-2H-benzo[g]indazol-2-yl]-2-oxoethyl}carbamate] | 53.6

— patent US9464082B2, “Aryl and arylalkyl substituted pyrazolyl and pyrimidinyl tricyclic enones as antioxidant inflammation modulators” (AbbVie Inc., priority 2014, dated 2016)
